Where two headings read alike, the source gives them in different places.
Legend:
[1] = system: RNA polymerase II phosphorylation (P-Ser-2, P-Ser-5); assay: Inhibition of phosphorylation of RNA polymerase II (immunoblot, MCF-7 cells); format: cell-based; settings: MCF-7 cells treated 4 hours
Method: MCF-7 breast cancer cells were treated with BS-181 or Roscovitine at the concentrations shown in FIG. 2 for 4 hours prior to harvesting of cells. […] Immunblotting for β-actin was used as loading control for protein content.

MAPKAP-K3 = MAPKAP-K3 (Homo sapiens, UniProt Q16644); assay: Kinase screen: MAPKAP-K3 assay; format: biochemical; settings: read-out: Mean Remaining Enzyme Activity (%)
Method: Generally, the same procedure was used for all assays. Since the total assay volume was 25.5 microliters, 0.5 microliters of inhibitors at 51× assay concentration were added to the plates before any other addition.
The basic procedure was to add 0.5 microliters inhibitor/control in DMSO to plate. Fifteen microliters of enzyme/substrate/buffer mix were added and incubated for 5 min. Ten microliters MgATP at the relevant concentration were added and incubated for 30 min. The assay was stopped by adding 5 microliters of 3% orthophosphoric acid. The assay was transferred to a p81 filter plate and read in a scintillation counter of 30 sec/well. Note that this assay procedure was not followed for MKK1, which instead involved a two-step assay, and PKC alpha, which required the addition of lipid vesicles.
MAPKAP-K3 assay: 5-20 mU of MAPKAP-K3 (diluted in 50 mM Tris (pH 7.5), 0.1 mM EGTA, 1 mg/ml BSA, 0.1%, b-Mercaptoethanol) was assayed against substrate peptide ([…]) (SEQ ID NO: 3) in a final volume of 25.5 μl containing 50 mM Tris (pH 7.5), 0.1 mM EGTA, 0.1%, b-Mercaptoethanol, 30 μM substrate peptide, 10 mM magnesium acetate and 0.02 mM [33P-g-ATP] (500-1000 cpm/pmole) and incubated for 30 mins at room temperature. Assays were stopped by addition of 5 μl of 0.5M (3%) orthophosphoric acid. Assays were harvested onto P81 Unifilter plates using a wash buffer of 50 mM orthophosphoric acid.

TK-10 = assay: cells; settings: Homo sapiens
EKVX = settings: for Mean Optical Densities / Percent Growth: EKVX
CAKI-1 [2] = assay: cells; settings: Homo sapiens
HL-60(TB) = settings: for Mean Optical Densities / Percent Growth: HL-60(TB)
SR = settings: for Mean Optical Densities / Percent Growth: SR
SK-MEL-2 = assay: cells; settings: Homo sapiens
CAKI-1 [3] = system: CAKI-1
HT29 = assay: cells; settings: Homo sapiens
[4] = OVCAR-5, log10 concentration −4.0
[5] = OVCAR-5, log10 concentration −5.0
[6] = OVCAR-5, log10 concentration −6.0
[7] = OVCAR-5, log10 concentration −7.0
[8] = OVCAR-5, log10 concentration −8.0
[9] = K-562, log10 concentration −4.0
[10] = K-562, log10 concentration −5.0
[11] = K-562, log10 concentration −6.0
[12] = K-562, log10 concentration −7.0
[13] = K-562, log10 concentration −8.0
[14] = SNB-75, log10 concentration −4.0
[15] = SNB-75, log10 concentration −5.0
[16] = SNB-75, log10 concentration −6.0
[17] = SNB-75, log10 concentration −7.0
[18] = SNB-75, log10 concentration −8.0
[19] = BT-549, log10 concentration −4.0
[20] = BT-549, log10 concentration −5.0
[21] = BT-549, log10 concentration −6.0
[22] = BT-549, log10 concentration −7.0
[23] = BT-549, log10 concentration −8.0
[24] = CAKI-1, log10 concentration −4.0
[25] = CAKI-1, log10 concentration −5.0
[26] = CAKI-1, log10 concentration −6.0
[27] = CAKI-1, log10 concentration −7.0
[28] = CAKI-1, log10 concentration −8.0

Chain of MAPKAP-K3 (Q16644 whole entry, species assumed): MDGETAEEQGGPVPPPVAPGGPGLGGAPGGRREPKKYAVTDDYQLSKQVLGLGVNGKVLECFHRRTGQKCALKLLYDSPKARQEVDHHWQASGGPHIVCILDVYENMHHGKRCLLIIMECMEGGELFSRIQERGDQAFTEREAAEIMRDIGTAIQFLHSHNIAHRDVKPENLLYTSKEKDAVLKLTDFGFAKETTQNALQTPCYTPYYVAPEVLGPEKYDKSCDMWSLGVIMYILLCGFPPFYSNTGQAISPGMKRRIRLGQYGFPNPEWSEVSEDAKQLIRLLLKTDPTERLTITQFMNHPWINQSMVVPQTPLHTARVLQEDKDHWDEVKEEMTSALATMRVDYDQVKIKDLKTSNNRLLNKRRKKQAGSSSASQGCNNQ

Compound: CC(C)c1cnn2c(NCc3ccccc3)cc(NCCCCCCCN)nc12 [BS-181]
- Inhibition of phosphorylation of RNA polymerase II [1]: capable of inhibiting phosphorylation of RNAPolymerase II
- remaining activity at 10 µM (MAPKAP-K3): 119%

Compound: CC(C)c1cnn2c(NCc3ccccc3)cc(N[C@@H](CO)[C@H](O)CO)nc12 [ICEC0318, (3S)-3-(7-(Benzylamino)-3-isopropylpyrazolo[1,5-a]pyrimidin-5-ylamino)butane-1,2,4-triol]
- GI50 (TK-10; TK-10): 0.377 µM
- CC50 (TK-10; TK-10, read-out: LC50): > 100 µM
- TGI (OVCAR-5; OVCAR-5 (Ovarian Cancer)): >1.00E−4
- Mean Optical Densities (OVCAR-5; [4]): 0.618
- Percent Growth (OVCAR-5; [4]): 10%
- Mean Optical Densities (OVCAR-5; [5]): 0.688
- Percent Growth (OVCAR-5; [5]): 19%
- Mean Optical Densities (OVCAR-5; [6]): 0.665
- Percent Growth (OVCAR-5; [6]): 16%
- Mean Optical Densities (OVCAR-5; [7]): 1.165
- Percent Growth (OVCAR-5; [7]): 82%
- Mean Optical Densities (OVCAR-5; [8]): 1.211
- Percent Growth (OVCAR-5; [8]): 88%
- TGI (EKVX; EKVX (Non-Small Cell Lung Cancer)): >1.00E−4
- Mean Optical Densities (EKVX; log10 concentration −4.0): 0.740
- Percent Growth (EKVX; log10 concentration −4.0): 4%
- Mean Optical Densities (EKVX; log10 concentration −5.0): 0.817
- Percent Growth (EKVX; log10 concentration −5.0): 9%
- Mean Optical Densities (EKVX; log10 concentration −6.0): 0.841
- Percent Growth (EKVX; log10 concentration −6.0): 11%
- Mean Optical Densities (EKVX; log10 concentration −7.0): 1.830
- Percent Growth (EKVX; log10 concentration −7.0): 83%
- Mean Optical Densities (EKVX; log10 concentration −8.0): 2.035
- Percent Growth (EKVX; log10 concentration −8.0): 98%
- GI50 (CAKI-1 [2]; CAKI-1): 0.249 µM
- CC50 (CAKI-1 [2]; CAKI-1, read-out: LC50): > 100 µM
- TGI (HL-60(TB); HL-60(TB) (Leukemia)): 6.07E−7
- Mean Optical Densities (HL-60(TB); log10 concentration −4.0): 0.495
- Percent Growth (HL-60(TB); log10 concentration −4.0): −2%
- Mean Optical Densities (HL-60(TB); log10 concentration −5.0): 0.484
- Percent Growth (HL-60(TB); log10 concentration −5.0): −4%
- Mean Optical Densities (HL-60(TB); log10 concentration −6.0): 0.407
- Percent Growth (HL-60(TB); log10 concentration −6.0): −19%
- Mean Optical Densities (HL-60(TB); log10 concentration −7.0): 0.932
- Percent Growth (HL-60(TB); log10 concentration −7.0): 69%
- Mean Optical Densities (HL-60(TB); log10 concentration −8.0): 1.084
- Percent Growth (HL-60(TB); log10 concentration −8.0): 94%
- TGI (K-562; K-562 (Leukemia)): >1.00E−4
- Mean Optical Densities (K-562; [9]): 0.341
- Percent Growth (K-562; [9]): 17%
- Mean Optical Densities (K-562; [10]): 0.325
- Percent Growth (K-562; [10]): 15%
- Mean Optical Densities (K-562; [11]): 0.334
- Percent Growth (K-562; [11]): 16%
- Mean Optical Densities (K-562; [12]): 0.991
- Percent Growth (K-562; [12]): 79%
- Mean Optical Densities (K-562; [13]): 1.064
- Percent Growth (K-562; [13]): 86%
- TGI (SNB-75; SNB-75 (CNS Cancer)): 4.82E−7
- Mean Optical Densities (SNB-75; [14]): 0.072
- Percent Growth (SNB-75; [14]): −83%
- Mean Optical Densities (SNB-75; [15]): 0.162
- Percent Growth (SNB-75; [15]): −62%
- Mean Optical Densities (SNB-75; [16]): 0.226
- Percent Growth (SNB-75; [16]): −47%
- Mean Optical Densities (SNB-75; [17]): 0.911
- Percent Growth (SNB-75; [17]): 101%
- Mean Optical Densities (SNB-75; [18]): 0.848
- Percent Growth (SNB-75; [18]): 88%
- TGI (SR; SR (Leukemia)): >1.00E−4
- Mean Optical Densities (SR; log10 concentration −4.0): 0.239
- Percent Growth (SR; log10 concentration −4.0): 7%
- Mean Optical Densities (SR; log10 concentration −5.0): 0.244
- Percent Growth (SR; log10 concentration −5.0): 8%
- Mean Optical Densities (SR; log10 concentration −6.0): 0.275
- Percent Growth (SR; log10 concentration −6.0): 16%
- Mean Optical Densities (SR; log10 concentration −7.0): 0.394
- Percent Growth (SR; log10 concentration −7.0): 45%
- Mean Optical Densities (SR; log10 concentration −8.0): 0.548
- Percent Growth (SR; log10 concentration −8.0): 83%
- GI50 (SK-MEL-2; SK-MEL-2): 0.404 µM
- CC50 (SK-MEL-2; SK-MEL-2, read-out: LC50): > 100 µM
- TGI (BT-549; BT-549 (Breast Cancer)): 8.82E−7
- Mean Optical Densities (BT-549; [19]): 0.803
- Percent Growth (BT-549; [19]): −10%
- Mean Optical Densities (BT-549; [20]): 0.805
- Percent Growth (BT-549; [20]): −9%
- Mean Optical Densities (BT-549; [21]): 0.843
- Percent Growth (BT-549; [21]): −5%
- Mean Optical Densities (BT-549; [22]): 1.769
- Percent Growth (BT-549; [22]): 88%
- Mean Optical Densities (BT-549; [23]): 1.968
- Percent Growth (BT-549; [23]): 108%
- TGI (CAKI-1 [3]; CAKI-1 (Renal Cancer)): >1.00E−4
- Mean Optical Densities (CAKI-1 [3]; [24]): 0.358
- Percent Growth (CAKI-1 [3]; [24]): 2%
- Mean Optical Densities (CAKI-1 [3]; [25]): 0.372
- Percent Growth (CAKI-1 [3]; [25]): 5%
- Mean Optical Densities (CAKI-1 [3]; [26]): 0.423
- Percent Growth (CAKI-1 [3]; [26]): 18%
- Mean Optical Densities (CAKI-1 [3]; [27]): 0.631
- Percent Growth (CAKI-1 [3]; [27]): 71%
- Mean Optical Densities (CAKI-1 [3]; [28]): 0.704
- Percent Growth (CAKI-1 [3]; [28]): 90%
- GI50 (HT29; HT-29): 0.336 µM
- CC50 (HT29; HT-29, read-out: LC50): > 100 µM

Reference: patent US8067424B2, “Selective inhibitors for cyclin-dependent kinases” (Emory University, priority 2007, dated 2011)
